This passage reports survival and Activity results from ChEMBL document CHEMBL1949576, “Praziquantel derivatives exhibit activity against both juvenile and adult Schistosoma japonicum” (2012).

What all share (assay type): functional
The test system of test [1] is Schistosoma japonicum. Nature of the test: Antischistosomal activity against adult Schistosoma japonicum assessed as worm survival at 50 uM after 48 hrs relative to control.
Test [2] relates to Schistosoma japonicum. Nature of the test: Antischistosomal activity against adult Schistosoma japonicum assessed as worm survival at 25 uM after 48 hrs relative to control.
Test [3] concerns Schistosoma japonicum. Nature of the test: Antischistosomal activity against adult Schistosoma japonicum assessed as worm survival at 10 uM after 48 hrs relative to control.
The subject of test [4] is Schistosoma japonicum. The experiment in a line: Antischistosomal activity against adult Schistosoma japonicum assessed as worm survival at 20 uM after 48 hrs relative to control.
Test [5] deals with Schistosoma japonicum. The experiment in a line: Antischistosomal activity against adult Schistosoma japonicum assessed as worm survival at 15 uM after 48 hrs relative to control.
The subject of test [6] is Schistosoma japonicum. Nature of the test: Antischistosomal activity against adult Schistosoma japonicum assessed as worm survival at 50 uM after 72 hrs relative to control.
For test [7], the system named is Schistosoma japonicum. The experiment in a line: Antischistosomal activity against adult Schistosoma japonicum assessed as worm survival at 25 uM after 72 hrs relative to control.
For test [8], the system named is Schistosoma japonicum. Nature of the test: Antischistosomal activity against adult Schistosoma japonicum assessed as worm survival at 10 uM after 72 hrs relative to control.
The subject of test [9] is Schistosoma japonicum. Nature of the test: Antischistosomal activity against adult Schistosoma japonicum assessed as worm survival at 20 uM after 72 hrs relative to control.
For test [10], the system named is Schistosoma japonicum. Nature of the test: Antischistosomal activity against adult Schistosoma japonicum assessed as worm survival at 15 uM after 72 hrs relative to control.
Test [11] has as its system Schistosoma japonicum. Nature of the test: Antischistosomal activity against juvenile Schistosoma japonicum assessed as worm survival at 50 uM after 24 hrs relative to control.
Test [12] deals with Schistosoma japonicum. The experiment in a line: Antischistosomal activity against juvenile Schistosoma japonicum assessed as worm survival at 10 uM after 24 hrs relative to control.
The test system of test [13] is Schistosoma japonicum. The experiment in a line: Antischistosomal activity against juvenile Schistosoma japonicum assessed as worm survival at 5 uM after 24 hrs relative to control.
Test [14] relates to Schistosoma japonicum. Nature of the test: Antischistosomal activity against juvenile Schistosoma japonicum assessed as worm survival at 25 uM after 24 hrs relative to control.
In test [15] the test system is Schistosoma japonicum. The experiment in a line: Antischistosomal activity against juvenile Schistosoma japonicum assessed as worm survival at 20 uM after 24 hrs relative to control.
Test [16] relates to Schistosoma japonicum. Nature of the test: Antischistosomal activity against juvenile Schistosoma japonicum assessed as worm survival at 50 uM after 48 hrs relative to control.
The subject of test [17] is Schistosoma japonicum. The experiment in a line: Antischistosomal activity against juvenile Schistosoma japonicum assessed as worm survival at 10 uM after 48 hrs relative to control.
The test system of test [18] is Schistosoma japonicum. Nature of the test: Antischistosomal activity against juvenile Schistosoma japonicum assessed as worm survival at 5 uM after 48 hrs relative to control.
The test system of test [19] is Schistosoma japonicum. Nature of the test: Antischistosomal activity against juvenile Schistosoma japonicum assessed as worm survival at 25 uM after 48 hrs relative to control.
Test [20] has as its system Schistosoma japonicum. Nature of the test: Antischistosomal activity against juvenile Schistosoma japonicum assessed as worm survival at 20 uM after 48 hrs relative to control.
Test [21] deals with Schistosoma japonicum. Nature of the test: Antischistosomal activity against juvenile Schistosoma japonicum assessed as worm survival at 50 uM after 72 hrs relative to control.
The subject of test [22] is Schistosoma japonicum. Nature of the test: Antischistosomal activity against juvenile Schistosoma japonicum assessed as worm survival at 10 uM after 72 hrs relative to control.
The subject of test [23] is Schistosoma japonicum. Nature of the test: Antischistosomal activity against juvenile Schistosoma japonicum assessed as worm survival at 5 uM after 72 hrs relative to control.
For test [24], the system named is Schistosoma japonicum. The experiment in a line: Antischistosomal activity against juvenile Schistosoma japonicum assessed as worm survival at 25 uM after 72 hrs relative to control.
Test [25] deals with Schistosoma japonicum. Nature of the test: Antischistosomal activity against juvenile Schistosoma japonicum assessed as worm survival at 20 uM after 72 hrs relative to control.
The test system of test [26] is Schistosoma japonicum. The experiment in a line: Antischistosomal activity against adult Schistosoma japonicum infected in mouse assessed as total worm reduction at 200 mg/kg, po administered 21 days after infection relative to control. The arrangement: scale not given: the % may be the effect or the level left.
The test system of test [27] is Schistosoma japonicum. The experiment in a line: Antischistosomal activity against juvenile Schistosoma japonicum infected in mouse assessed as total worm reduction at 200 mg/kg, po administered 14 days after infection relative to control. Further details: scale not given: the % may be the effect or the level left.
For test [28], the system named is Schistosoma japonicum. Nature of the test: Antischistosomal activity against adult Schistosoma japonicum assessed as worm survival at 50 uM after 24 hrs relative to control.
Test [29] has as its system Schistosoma japonicum. Nature of the test: Antischistosomal activity against adult Schistosoma japonicum assessed as worm survival at 25 uM after 24 hrs relative to control.
For test [30], the system named is Schistosoma japonicum. Nature of the test: Antischistosomal activity against adult Schistosoma japonicum assessed as worm survival at 10 uM after 24 hrs relative to control.
Test [31] has as its system Schistosoma japonicum. Nature of the test: Antischistosomal activity against adult Schistosoma japonicum assessed as worm survival at 20 uM after 24 hrs relative to control.
Test [32] relates to Schistosoma japonicum. Nature of the test: Antischistosomal activity against adult Schistosoma japonicum assessed as worm survival at 15 uM after 24 hrs relative to control.
Test [33] relates to Schistosoma japonicum. Nature of the test: Antischistosomal activity against adult Schistosoma japonicum assessed as worm survival at 80 uM after 48 hrs relative to control.
Test [34] has as its system Schistosoma japonicum. Nature of the test: Antischistosomal activity against adult Schistosoma japonicum assessed as worm survival at 60 uM after 48 hrs relative to control.
In test [35] the test system is Schistosoma japonicum. The experiment in a line: Antischistosomal activity against adult Schistosoma japonicum assessed as worm survival at 70 uM after 48 hrs relative to control.
The subject of test [36] is Schistosoma japonicum. Nature of the test: Antischistosomal activity against adult Schistosoma japonicum assessed as worm survival at 80 uM after 72 hrs relative to control.
Test [37] deals with Schistosoma japonicum. The experiment in a line: Antischistosomal activity against adult Schistosoma japonicum assessed as worm survival at 60 uM after 72 hrs relative to control.
For test [38], the system named is Schistosoma japonicum. Nature of the test: Antischistosomal activity against adult Schistosoma japonicum assessed as worm survival at 70 uM after 72 hrs relative to control.
In test [39] the test system is Schistosoma japonicum. The experiment in a line: Antischistosomal activity against adult Schistosoma japonicum assessed as worm survival at 80 uM after 24 hrs relative to control.
The subject of test [40] is Schistosoma japonicum. Nature of the test: Antischistosomal activity against adult Schistosoma japonicum assessed as worm survival at 60 uM after 24 hrs relative to control.
The subject of test [41] is Schistosoma japonicum. Nature of the test: Antischistosomal activity against adult Schistosoma japonicum assessed as worm survival at 70 uM after 24 hrs relative to control.
The test system of test [42] is Schistosoma japonicum. The experiment in a line: Antischistosomal activity against adult Schistosoma japonicum assessed as worm survival at 100 uM after 48 hrs relative to control.
The subject of test [43] is Schistosoma japonicum. Nature of the test: Antischistosomal activity against adult Schistosoma japonicum assessed as worm survival at 100 uM after 72 hrs relative to control.
Test [44] has as its system Schistosoma japonicum. The experiment in a line: Antischistosomal activity against juvenile Schistosoma japonicum assessed as worm survival at 100 uM after 24 hrs relative to control.
The test system of test [45] is Schistosoma japonicum. The experiment in a line: Antischistosomal activity against juvenile Schistosoma japonicum assessed as worm survival at 100 uM after 48 hrs relative to control.
In test [46] the test system is Schistosoma japonicum. Nature of the test: Antischistosomal activity against juvenile Schistosoma japonicum assessed as worm survival at 100 uM after 72 hrs relative to control.
The subject of test [47] is Schistosoma japonicum. Nature of the test: Antischistosomal activity against adult Schistosoma japonicum assessed as worm survival at 100 uM after 24 hrs relative to control.

As to `C[C@H]1[C@@H](OC(=O)CCC(=O)Nc2ccc3c(c2)C2CN(C(=O)C4CCCCC4)CC(=O)N2CC3)O[C@@H]2O[C@@]3(C)CC[C@H]4[C@H](C)CC[C@@H]1[C@@]24OO3` (stereo partly drawn), the survival at 50 µM in [1], in test [6], in [11], in test [16], in test [21] and in test [28] was 0% each time. In addition, the survival at 25 µM in test [2], in [7], in test [14], in [19], in test [24] and in test [29] was 0% in each case. For the same compound, the survival at 10 µM in test [3] is 100%; in test [8], 100%; in test [12], 9.1%; in test [17], 45.5%; in test [22] it was 54.5%; in test [30] it was 100%. For the same compound, the survival at 20 µM in test [4] is 0%; in test [9], 0%; in test [15] it was 11.1%; in test [20], 0%; in [25] it was 0%; in test [31] it was 0%. The survival at 15 µM stood at 60% in test [5], 40% in test [10] and 0% in test [32]. The survival at 5 µM in test [13], in test [18] and in [23] was 9.1% each time. The Activity in test [26] came to 41.8%; in test [27], 3.8%.

Regarding `O=C(Oc1ccc2c(c1)C1CN(C(=O)C3CCCCC3)CC(=O)N1CC2)C1CCC2(CC1)OOC1(O2)C2CC3CC(C2)CC1C3` (stereo not drawn), the survival at 50 µM in [1], in test [6] and in [28] was 40% in each case. Moreover, the survival at 80 µM in test [33], in test [36] and in test [39] was 0% throughout. Also, the survival at 60 µM in test [34], in test [37] and in test [40] was 40% in each case. In addition, the survival at 70 µM worked out at 40% in test [35], 20% in test [38] and 20% in test [41].

As to `O=C(C1CCCCC1)N1CC(=O)N2CCc3ccccc3C2C1` (stereo not drawn) [PRAZIQUANTEL], the survival at 50 µM in [1] was determined as 44.4%; in [6] it was 36.3%; in test [28], 62.9%. The survival at 80 µM in test [33] stood at 19.1%; in [36], 10%; in test [39] it was 28.8%. Also, the survival at 100 µM in test [42] stood at 4.4%; in test [43] it was 1.4%; in test [44] it was 100%; in test [45], 100%; in test [46] it was 100%; in test [47], 10%. In addition, the Activity is reported as 66.7% in test [26] and 19.8% in test [27].
